Data as given in patent US10647680B2, “Urea compound, preparation method therefor and medical use thereof” (Ancureall Pharmaceutical (Shanghai) Co., Ltd., priority 2016, dated 2020).

What was measured:
Format in all cases: cell-based
[1] = tested on: Calu-3 (HER2/ErbB2 amp); assay: In vitro growth inhibition (GI50), Calu-3; conditions: Homo sapiens
Source text: Tumor cell line is an effective cell model for studying the inhibition of tumor cell growth or proliferation in vitro. In the present invention, a representative tumor cell line was selected to determine the cell growth inhibition activity of the present compound. All cell lines used were from ATCC, DSMZ, and the Cell Bank of the Chinese Academy of Sciences. Cell culture conditions and methods were in accordance with the requirements of each cell line. Cells were subcultured in vitro for no more than 3 passages each time, and as required, single-clone purification and identification of cell lines could be carried out.
The cell culture media used were RPMI1640 (Gibco), MEM (Gibco), McCOY'S5A (Gibco), and IMDM (Gibco). The complete medium was prepared by supplement with 5˜20% fetal calf serum (Gibco), 1% double-antibiotics (10000 units/mL penicillin and 10000 units/mL), 2 mM glutamine or 1 mM sodium pyruvate, respectively.
Human gastric cancer cell line NCI-N87 (HER2/ErbB2 amp, ATCC), human breast cancer cell line HCC1954 (HER2/ErbB2 amp, ATCC) and ZR-75-30 (HER2/ErbB2 amp, ATCC), human adenocarcinoma cell line AU565 (HER2/ErbB2 amp, ATCC), human lung squamous cell carcinoma cell line NCI-H2170 (HER2/ErbB2 amp, ATCC), human bronchioalveolar adenocarcinoma cell line NCI-H1781 (HER2/ErbB2 Ins G776V,C mutant type, ATCC) were cultured with a 1×RPMI1640 complete medium (10% FBS), respectively. Human lung adenocarcinoma cell line Calu-3 (HER2/ErbB2 amp, ATCC) was cultured with 1×MEM, 10% FBS, 1% double antibody, 1% NEAA (Gibco), 2 mM glutamine and 1 mM sodium pyruvate. The human breast cancer cell line SK-BR-3 (HER2/ErbB2 amp, ATCC) was cultured with a McCOY'S5A complete medium (10% FBS).
Adherent cells were digested with 0.25% pancreatin-EDTA (Gibco). The suspension cells were collected by centrifugation. The supernatant was discarded and the cell pellet was resuspended and counted. Different cell concentrations (5˜10×10^4 cells/mL) were prepared according to the growth cycle of each cell line and then seeded on a 96-well plate (Corning), 100 μL/well. The cells were incubated overnight at 37° C., 5% CO2. The compounds were added to the cells on the second day with 2 wells in parallel. The final concentration of organic solvent shall not exceed 1%. The cells were continually incubated for 3 to 5 days, and then subjected to MTT assay.
The compound of the present invention and the control compound were dissolved in DMSO (Sigma) respectively, with the purity of more than 98%. The compound was stored in a concentration of 10 mM at −20° C. and diluted to 2- or 10-fold series prior to use.
Dojindo CCK8 reagent kit was used as MTT assay. THERMO […] FC meter was used as microplate reader.
For adherent cells, culture medium was removed and immediately replaced with the fresh prepared medium which contains 10% CCK8 reagent (100 μL/well). For the suspension cells, CCK8 was directly added to 10% of the final concentration. The cells were continually incubated for 1˜4 h. When a dark yellow color could be observed in the solvent control wells, the absorbance value at OD450 nm was measured and the cell growth rate was calculated according to the following formula: Cell Growth Rate (%)=100*(T−T0)/(C−T0) T=optical density of drug treatment cell well—optical density of blank control well; T0=optical density of cell well before drug treatment—optical density of blank control well; C=optical density of cell well of solvent control group—optical density of blank control well. The concentration value of 50% inhibition of cell growth (GI50) was calculated according to the drug concentration and cell growth rate curve. The experiment was independently repeated 1˜3 times, and subject to biological statistical analysis. 4. Experimental Results
Tumor cell growth inhibition test was performed by selecting representative compounds (compounds 4, 11, 12, 16, 27, 68, 71, 77, 79, 89 and 116 of the present invention). […]

[2] = tested on: KG-1 (expressing FGFR1OP2-FGFR1 fusion protein); assay: In vitro growth inhibition (GI50), KG-1; conditions: Homo sapiens; Cell lines of leukemia; read-out: GI 50 KG-1 FGFR1OP 2-FGFR1
[3] = tested on: K562 (FLT3 negative expression, positive expression of BCR-ABL fusion protein); assay: In vitro growth inhibition (GI50), K562; conditions: Homo sapiens, Cell lines of leukemia, read-out: GI 50 K562 BCR-ABL

Row | SMILES | GI50 [1] [nM] | GI50 [3] [nM] | GI50 [2] [nM]
1 | CC(C)(C)c1cc(NC(=O)Nc2ccc(-n3cnc4ccc(OCCN5CCOCC5)cc43)cc2)no1 [Compound 27, 1-(5-tert-butyl-isoxazol-3-yl)-3-{4-[6-(2morpholin-4-yl-ethoxyl)-benzimidazol-1-yl]-phenyl}-urea] | > 2500 | > 1000 | 100 to 1000
2 | CC(C)(C)c1cc(NC(=O)Nc2ccc(-n3cnc4ccccc43)cc2)[nH]n1 [Compound 68, 1-(4-benzimidazol-1-yl-phenyl)-3-(5-tert-butyl-2H-pyrazol-3-yl)-urea] | > 2500 | > 1000 | > 1000
3 | COc1ccc2c(c1)ncn2-c1ccc(NC(=O)Nc2cc(C(C)(C)C)n[nH]2)cc1 [Compound 71, 1-(5-tert-butyl-2H-pyrazol-3-yl)-3-[4-(5-methoxyl-benzimidazol-1-yl)-phenyl]-urea] | > 2500 | > 1000 | > 1000
4 | COCCOc1ccc2c(c1)ncn2-c1ccc(NC(=O)Nc2cc(C(C)(C)C)n[nH]2)cc1 [Compound 77, 1-(5-tert-butyl-2H-pyrazol-3-yl)-3-{4-[5-(2-methoxyl-ethoxyl)-benzimidazol-1-yl]-phenyl}-urea] | > 2500 | > 1000 | > 1000
5 | CC(C)(C)c1cc(NC(=O)Nc2ccc(-n3cnc4cc(OCCO)ccc43)cc2)[nH]n1 [Compound 79, 1-(5-tert-butyl-2H-pyrazol-3-yl)-3-{4-[5-(2-hydroxy-ethoxyl)-benzimidazol-1-yl]-phenyl]urea] | > 2500 | > 1000 | > 1000
6 | CC(C)(C)c1cc(NC(=O)Nc2ccc(-n3cnc4cc(OCCN5CCOCC5)ccc43)cc2)[nH]n1 [Compound 89, 1-(5-tert-butyl-2H-pyrazol-3-yl)-3-{4-[5-(2-morpholin-4-yl-ethoxyl)-benzimidazol-1-yl]-phenyl}-urea] | > 2500 | > 1000 | > 1000
7 | CC(C)(C)c1cc(N)n(C(=O)Nc2ccc(-n3cnc4ccccc43)cc2)n1 [Compound 116, 5-amino-3-tert-butyl-pyrazol-1-carboxylic acid (4-benzimidazol-1-yl-phenyl)-amide] | > 2500 | > 1000 | > 1000

The next lines start with results.

Row | GI50 [1] [nM] | GI50 [3] [nM] | SMILES | GI50 [2] [nM]
8 | > 2500 | 100 to 1000 | CC(C)(C)c1cc(NC(=O)Nc2ccc(-n3cnc4cc(O)ccc43)cc2)no1 [Compound 4, 1-(5-tert-butyl-isoxazol-3-yl)-3-[4-(5-hydroxy-benzimidazol-1-yl)-phenyl]-urea] | 100 to 1000
9 | > 2500 | > 1000 | CC(C)(C)c1cc(NC(=O)Nc2ccc(-n3cnc4cc(OCCO)ccc43)cc2)no1 [Compound 11, 1-(5-tert-butyl-isoxazol-3-yl)-3-{4-[5-(2-hydroxy-ethoxyl)-benzimidazol-1-yl]-phenyl]-urea] | > 1000
10 | > 2500 | > 1000 | CC(C)(C)c1cc(NC(=O)Nc2ccc(-n3cnc4cc(OCCN5CCOCC5)ccc43)cc2)no1 [Compound 16, 1-(5-tert-butyl-isoxazol-3-yl)-3-{4-[5-(2-morpholin-4-yl-ethoxyl)-benzimidazol-1-yl]-phenyl}-urea] | > 1000
